Reference: ChEMBL document CHEMBL2321772 (J Med Chem, 2013)

Legend:
[1] = physchem; details: octanol/water
[2] = Oral bioavailability in dog; assay type: ADME, organism-based, Canis lupus familiaris; details: in vivo
[3] = Oral bioavailability in rat; assay type: ADME, organism-based; details: in vivo
[4] = Oral bioavailability in mouse; assay type: ADME, organism-based; details: in vivo
[5] = Half life in dog; assay type: ADME, organism-based, Canis lupus familiaris; details: in vivo
[6] = Half life in rat; assay type: ADME, organism-based; details: in vivo
[7] = Half life in mouse; assay type: ADME, organism-based; details: in vivo
[8] = Volume of distribution at steady state in dog; assay type: ADME, organism-based, Canis lupus familiaris; details: in vivo, read-out: Vdss
[9] = Clearance in rat; assay type: ADME, organism-based; details: in vivo
[10] = Clearance in mouse; assay type: ADME, organism-based; details: in vivo
[11] = Intrinsic clearance in dog hepatocytes assessed per million of cells; assay type: ADME, cell-based, Canis lupus familiaris, Hepatocyte; details: read-out: CLH
[12] = Intrinsic clearance in rat hepatocytes assessed per million of cells; assay type: ADME, cell-based, Hepatocyte; details: read-out: CLH
[13] = Intrinsic clearance in mouse hepatocytes assessed per million of cells; assay type: ADME, cell-based, Hepatocyte; details: read-out: CLH
[14] = in vitro; details: human, hepatocytes

Row | Structure (SMILES) | logD [1] | also measured
1 | NC1(C(=O)NC(c2ccccc2)c2ccc(Cl)cc2)CCN(c2ncnc3[nH]ccc23)CC1 (racemic) | 4.1 | 
2 | NC1(C(=O)NC(CCCN2CCOCC2)c2ccc(Cl)cc2)CCN(c2ncnc3[nH]ccc23)CC1 (racemic) | 2.7 | 
3 | NC1(C(=O)NC(CS(N)(=O)=O)c2ccc(Cl)cc2)CCN(c2ncnc3[nH]ccc23)CC1 (racemic) | 2.2 | 
4 | NC(=O)C(NC(=O)C1(N)CCN(c2ncnc3[nH]ccc23)CC1)c1ccc(Cl)cc1 (racemic) | 2.2 | 
5 | NC1(C(=O)NCc2ccc(Cl)cc2)CCN(c2ncnc3[nH]ccc23)CC1 |  | bioavailability [2]: 70%; bioavailability [3]: 56%; bioavailability [4]: 88%; half-life [5]: 3 h; half-life [6]: 2.3 h; half-life [7]: 0.8 h; Vd [8]: 0.6 L/kg; clearance [9]: 48 mL/min/kg; clearance [10]: 42 mL/min/kg; hepatocyte CLint [11]: 6 µL/min/1e6 cells; hepatocyte CLint [12]: 19 µL/min/1e6 cells; hepatocyte CLint [13]: 10 µL/min/1e6 cells; hepatocyte CLint [14]: 15 µL/min/1e6 cells
6 | CC(=O)NCC(NC(=O)C1(N)CCN(c2ncnc3[nH]ccc23)CC1)c1ccc(Cl)cc1 (racemic) | 2.4 | 
7 | NC1(C(=O)NC(c2ccc(Cl)cc2)C2CC2)CCN(c2ncnc3[nH]ccc23)CC1 (racemic) | 3.4 | 
8 | C[C@H](NC(=O)C1(N)CCN(c2ncnc3[nH]ccc23)CC1)c1ccc(Cl)cc1 | 2.7 | 
9 | COc1ccc(C(C)NC(=O)C2(N)CCN(c3ncnc4[nH]ccc34)CC2)cc1OC (racemic) | 1.8 | 
10 | CS(=O)(=O)NCC(NC(=O)C1(N)CCN(c2ncnc3[nH]ccc23)CC1)c1ccc(Cl)cc1 (racemic) | 2.1 | 
11 | CC(NC(=O)C1(N)CCN(c2ncnc3[nH]ccc23)CC1)c1ccc(Cl)cc1 (racemic) | 2.7 | 
12 | CC(NC(=O)C1(N)CCN(c2ncnc3[nH]ccc23)CC1)c1ccc(S(C)(=O)=O)cc1 (racemic) | 1 | 
13 | NC1(C(=O)NC(CCCO)c2ccc(Cl)cc2)CCN(c2ncnc3[nH]ccc23)CC1 (racemic) | 2.8 | 
14 | NC1(C(=O)N[C@@H](CCN2CCCCC2)c2ccc(Cl)cc2)CCN(c2ncnc3[nH]ccc23)CC1 (racemic) | 2.4 | 
15 | CN(C)CCCC(NC(=O)C1(N)CCN(c2ncnc3[nH]ccc23)CC1)c1ccc(Cl)cc1 (racemic) | 1.4 | 
16 | CC(NC(=O)C1(N)CCN(c2ncnc3[nH]ccc23)CC1)c1ccccn1 (racemic) | 1.3 | 
17 | NC1(C(=O)NC(CCCN2CCCC2)c2ccc(Cl)cc2)CCN(c2ncnc3[nH]ccc23)CC1 (racemic) | 1.3 | 
18 | CN(C)C(=O)CC(NC(=O)C1(N)CCN(c2ncnc3[nH]ccc23)CC1)c1ccc(Cl)cc1 (racemic) | 2.4 | 
19 | CC(NC(=O)C1(N)CCN(c2ncnc3[nH]ccc23)CC1)c1ccccc1 (racemic) | 2.2 | 
20 | NC1(C(=O)NC(CO)c2ccc(Cl)cc2)CCN(c2ncnc3[nH]ccc23)CC1 (racemic) | 2.4 | 
21 | CCC(NC(=O)C1(N)CCN(c2ncnc3[nH]ccc23)CC1)c1ccc(Cl)cc1 (racemic) | 3.5 | 
22 | COCCC(NC(=O)C1(N)CCN(c2ncnc3[nH]ccc23)CC1)c1ccc(Cl)cc1 (racemic) | 3 | 
23 | CC(NC(=O)C1(N)CCN(c2ncnc3[nH]ccc23)CC1)c1ccc(F)cc1 (racemic) | 2.4 | 
24 | CS(=O)(=O)NCCC(NC(=O)C1(N)CCN(c2ncnc3[nH]ccc23)CC1)c1ccc(Cl)cc1 (racemic) | 2.2 | 
25 | C[C@@H](NC(=O)C1(N)CCN(c2ncnc3[nH]ccc23)CC1)c1ccc(Cl)cc1 | 3.3 | 
